These results are taken from ChEMBL document CHEMBL5365509, “Structure-Activity Relationship and Molecular Docking of Quinazolinones Inhibiting Expression of COX-2, IL-1β, iNOS, and TNF-α through NF-κB Pathways” (ACS Med Chem Lett, 2023).

Data set [1] has as its system RAW264.7. In words: Anti-inflammatory activity in mouse RAW264.7 assessed as LPS-induced COX-2 mRNA expression at 62.5 uM incubated for 16 hrs by RT-PCR analysis relative to control. The class given is functional.
A further data set in a line: in vitro. The note with it: mouse.
Data set [2] concerns RAW264.7. In words: Anti-inflammatory activity in mouse RAW264.7 assessed as decrease in LPS-induced IL-1beta mRNA expression at 62.5 uM incubated for 16 hrs by RT-PCR analysis. The class given is functional, cell-based.
Data set [3] deals with RAW264.7. Put plainly: Anti-inflammatory activity in mouse RAW264.7 assessed as LPS-induced TNF-alpha mRNA expression at 62.5 uM incubated for 16 hrs by RT-PCR analysis relative to control. The data set is classed as functional.
Data set [4] concerns RAW264.7. Put plainly: Anti-inflammatory activity in mouse RAW264.7 assessed as LPS-induced IL-1beta mRNA expression at 62.5 uM incubated for 16 hrs by RT-PCR analysis relative to control. The data set is classed as functional.
The test system of data set [5] is RAW264.7. Put plainly: Anti-inflammatory activity in mouse RAW264.7 assessed as decrease in LPS-induced TNF-alpha mRNA expression at 62.5 uM incubated for 16 hrs by RT-PCR analysis relative to control. The class given is functional. On the set-up: scale not given: the % may be the effect or the level left.
Data set [6] relates to RAW264.7. Put plainly: Anti-inflammatory activity in mouse RAW264.7 assessed as decrease in LPS-induced IL-1beta mRNA expression at 62.5 uM incubated for 16 hrs by RT-PCR analysis relative to control. The class given is functional. On the set-up: scale not given: the % may be the effect or the level left.
For data set [7], the system named is RAW264.7. Put plainly: Cytotoxicity against mouse RAW264.7 cells assessed as cell viability at 6.25 uM by MTT assay. The class given is toxicity, cell-based. The conditions noted are these: raw264.7, 6.25 µM.
In data set [8] the test system is RAW264.7. Put plainly: Anti-inflammatory activity in mouse RAW264.7 assessed as LPS-induced iNOS mRNA expression at 62.5 uM incubated for 16 hrs by RT-PCR analysis relative to control. The class given is functional.
Data set [9] concerns RAW264.7. Put plainly: Anti-inflammatory activity in mouse RAW264.7 assessed as decrease in LPS-induced COX-2 mRNA expression at 62.5 uM incubated for 16 hrs by RT-PCR analysis. The data set is classed as functional, cell-based.
The subject of data set [10] is RAW264.7. In words: Anti-inflammatory activity in mouse RAW264.7 assessed as decrease in LPS-induced iNOS mRNA expression at 62.5 uM incubated for 16 hrs by RT-PCR analysis relative to control. On the set-up: scale not given: the % may be the effect or the level left. The class given is functional.
In data set [11] the test system is RAW264.7. In words: Anti-inflammatory activity in mouse RAW264.7 assessed as decrease in LPS-induced COX-2 mRNA expression at 62.5 uM incubated for 16 hrs by RT-PCR analysis relative to control. The data set is classed as functional. On the set-up: scale not given: the % may be the effect or the level left.
For data set [12], the system named is RAW264.7. Put plainly: Anti-inflammatory activity in mouse RAW264.7 assessed as decrease in LPS-induced IL-1beta mRNA expression incubated for 16 hrs by RT-PCR analysis. The data set is classed as functional, cell-based. The conditions noted are these: dose 0.1-62.5 µM.
The subject of data set [13] is RAW264.7. Put plainly: Anti-inflammatory activity in mouse RAW264.7 assessed as decrease in LPS-induced COX-2 mRNA expression incubated for 16 hrs by RT-PCR analysis. The class given is functional, cell-based. The conditions noted are these: dose 0.1-62.5 µM.

Molecules are shown by their SMILES. The source made the active and inactive calls. The calls are words filed in the database; no cut-off is given here.

Description for in vitro: Cytotoxicity against mouse RAW264.7 cells assessed as cell viability at 6.25 uM by MTT assay relative to control

As for `CCC(C)c1nc2ccccc2c(=O)[nH]1` (configuration not stated), the values for the Activity in the data set with RAW264.7 [1], in the data set on RAW264.7 [3] and with RAW264.7 [4] were 0.5%, 44% and 4.02%, respectively. In “in vitro” (RAW264.7 cells), this molecule had a viability at 6.25 µM of more than 80%. In addition, the outcome with RAW264.7 [2] was Active.

Turning to `Oc1ncnc2cc(Cl)ccc12`, the Activity in the data set with RAW264.7 [5] is given as less than 50%; in the data set with RAW264.7 [6] it was 10.85%. In “in vitro” (RAW264.7 cells), this molecule gave a viability at 6.25 µM of more than 80%.

As to `O=c1[nH]c(/C=C/c2ccccc2)nc2ccccc12`, the Activity result with RAW264.7 [7] is given as “Toxic”.

Consider `CC(C)c1nc2ccccc2c(=O)[nH]1`, for which the results for the Activity in the data set on RAW264.7 [1] and in the data set on RAW264.7 [4] were 20.47% and 14.02%, respectively. This molecule yielded a viability at 6.25 µM in the data set “in vitro” (RAW264.7 cells) of more than 80%. In the data set on RAW264.7 [2], the outcome was Active.

For `O=c1[nH]cnc2ncccc12`, the viability at 6.25 µM in the data set “in vitro” (RAW264.7 cells) was more than 80%. Besides, the Activity with RAW264.7 [8] came to 62.82%. The result with RAW264.7 [9] and with RAW264.7 [2] was inactive.

For `Cc1cccc(-c2nc(O)c3ccccc3n2)c1`, the results for the Activity with RAW264.7 [1] and with RAW264.7 [4] were 3.79% and less than 35%, respectively. The viability at 6.25 µM in the data set “in vitro” (RAW264.7 cells) was more than 80%.

The molecule `O=c1[nH]c(-c2cccc(C(F)(F)F)c2)nc2ccccc12` returned a viability at 6.25 µM in “in vitro” (RAW264.7 cells) of more than 80%. Moreover, the Activity in the data set with RAW264.7 [8] is given as 13.98%; in the data set on RAW264.7 [4], less than 35%. Moreover, the result in the data set on RAW264.7 [9] was inactive.

Regarding `COc1ccc(-c2nc(O)c3ccccc3n2)cc1`, in the data set with RAW264.7 [9], the result was inactive. Further, the Activity in the data set with RAW264.7 [4] is given as less than 35%.

As to `O=c1[nH]cnc2cc(F)ccc12`, the Activity in the data set with RAW264.7 [5] was less than 50%; with RAW264.7 [6], 10.85%. The same molecule showed a viability at 6.25 µM in the data set “in vitro” (RAW264.7 cells) of more than 80%.

Regarding `Cc1nc2ccccc2c(=O)[nH]1`, the Activity was determined as 60.96% in the data set with RAW264.7 [1] and 58.79% with RAW264.7 [4]. The molecule further displayed a viability at 6.25 µM in “in vitro” (RAW264.7 cells) of more than 80%.

`O=c1[nH]cnc2ccccc12` [QUINAZOLINONE] had a viability at 6.25 µM in the data set “in vitro” (raw264.7) of more than 80%.

On to `CC(c1ccccc1)n1cnc2ccccc2c1=O` (configuration not stated), for which the viability at 6.25 µM in “in vitro” (RAW264.7 cells) is more than 80%. Further, the Activity with RAW264.7 [10] is less than 22%. Besides, the outcome in the data set with RAW264.7 [9] was Active.

As to `O=c1c2ccccc2ncn1-c1ccccc1`, the Activity in the data set with RAW264.7 [11] is 28.46%; in the data set with RAW264.7 [10] it was less than 22%. Further, in “in vitro” (RAW264.7 cells), the viability at 6.25 µM was more than 80%.

In the case of `CCCCCCCCc1nc2ccccc2c(=O)[nH]1`, the Activity result is “Dose-Dependent Effect” in the data set on RAW264.7 [12]; 11.14% in the data set with RAW264.7 [1]; “Dose-Dependent Effect” in the data set on RAW264.7 [13]; 44% in the data set with RAW264.7 [3]; 6.92% in the data set with RAW264.7 [4]. This molecule also registered a viability at 6.25 µM in the data set “in vitro” (RAW264.7 cells) of more than 80%. The outcome in the data set on RAW264.7 [2] was Active.

Turning to `O=c1[nH]cnc2ccc(F)cc12`, the Activity with RAW264.7 [5] was less than 50%; in the data set on RAW264.7 [6], 10.85%. The same molecule returned a viability at 6.25 µM in the data set “in vitro” (RAW264.7 cells) of more than 80%.

For `COc1ccc(-c2nc3ccccc3c(=O)[nH]2)cc1`, in “in vitro” (RAW264.7 cells), the viability at 6.25 µM was more than 80%.

Turning to `CCCCCCc1nc2ccccc2c(=O)[nH]1`, the results for the Activity with RAW264.7 [11] and with RAW264.7 [4] were 95% and 3.1%, respectively. Further, in the data set “in vitro” (RAW264.7 cells), the viability at 6.25 µM was more than 80%.

In the case of `Cn1cnc2ccccc2c1=O`, the values for the Activity with RAW264.7 [11] and with RAW264.7 [10] were 28.85% and less than 22%, respectively. For the same molecule, the viability at 6.25 µM in the data set “in vitro” (RAW264.7 cells) was more than 80%.

Regarding `Oc1nc(C2CCCCC2)nc2ccccc12`, the Activity result with RAW264.7 [12] was “Dose-Dependent Effect”; in the data set on RAW264.7 [1], more than 80%; in the data set on RAW264.7 [6], 75.72%; in the data set on RAW264.7 [13], “Dose-Dependent Effect”; in the data set on RAW264.7 [3], 44%. The viability at 6.25 µM in “in vitro” (RAW264.7 cells) was more than 80%.
